From patent US9169259B2, “Imidazopyridazine compounds” (Hoffmann-La Roche Inc., priority 2011, dated 2015)
Where a name gives a salt, the structure may show the parent alone.

Biological target: recombinant human SYK360-635 (Homo sapiens (Human), UniProt P43405)
Experiment: SYK kinase assay (33P ATP filtration, IC50 of SYK inhibition)
Format: biochemical
Conditions: truncated SYK aa 360-635 0.5 nM, ATP 20 μM, peptide 5 μM, 30° C. 15 min; read-out: ENZYME_FILTRATION_IC50
Experimental: Determination of IC50 of Spleen Tyrosine Kinase (SYK) Inhibition:
SYK kinase assay is a standard kinase assay adapted to a 96 well plate format. This assay is performed in 96-well format for IC50 determination with […] which represented 10 half log dilutions and a 40 μL reaction volume. The assay measures the incorporation of radiolabeled ^33P γATP into an N-terminally biotinylated peptide substrate, derived from naturally occurring phosphoacceptor consensus sequence (Biotin-11aa DY*E). Phosphorylated products were detected upon termination of reactions with EDTA and the addition of Streptavidin coated beads.
Assay plates: 96-well MultiScreen 0.65 um filter plates (Millipore Cat. No.: MADVNOB10)
final concentration: 50 mM HEPES pH7.5
BSA: Bovine Serum Albumin Fraction V, fatty acid free (Roche Diagnostics GmbH, Cat. No. 9100221) diluted to a final concentration of 0.1%
Assay Dilution Buffer (ADB): 50 mM HEPES, 0.1 mM EGTA, 0.1 mM Na Vanadate, 0.1 mM β-glycerophosphate, 10 mM MgCl2, 1 mM DTT, 0.1% BSA, pH 7.5
Bead wash buffer: 10 g/L PBS (Phosphate buffered saline) with 2M NaCl+1% phosphoric acid.
DMSO and the mixture was incubated for 10 min at RT.
The kinase reaction was initiated by the addition of 10 μL 4× substrate cocktail containing the DYE peptide substrate [0 or 5 μM], ATP [20 μM] and ^33PγATP [2 μCi/r×n]. After incubation at 30° C. for 15 min, the reaction was terminated by the transfer of 25 μL of the reaction sample to a 96 well 0.65 μm Millipore MADVNOB membrane/plate containing 200 μL 5 mM EDTA and 20% Streptavidine coated beads in PBS.
After the last wash membrane/plates were transferred to an adaptor plate, heat dried for 15 min at 60° C., and 50 μL scintillation cocktail was added to each well and 4 h later the amount of radioactivity was counted in a top counter.

SMILES | IC50
FC(F)(F)c1cccc(Nc2cc(-c3ccccc3)nn3ccnc23)n1 [Example I-1, (6-Phenyl-imidazo[1,2-b]pyridazin-8-yl)-(6-trifluoromethyl-pyridin-2-yl)-amine] | > 10 µM
CCc1ccc(Nc2cc(-c3ccccc3)nn3ccnc23)nc1 [Example I-2, (5-Ethyl-pyridin-2-yl)-(6-phenyl-imidazo[1,2-b]pyridazin-8-yl)-amine] | 0.186 µM
CC1CCCN1c1cccc(Nc2cc(-c3cccc(C(=O)Nc4ccc(C(=O)O)cc4)c3)nn3ccnc23)n1 (stereo not shown) [Example I-10, 4-(3-{8-[6-(2-Methyl-pyrrolidin-1-yl)-pyridin-2-ylamino]-imidazo[1,2-b]pyridazin-6-yl}-benzoylamino)-benzoic acid] | 0.00165 µM
CC1CCCN1c1cccc(Nc2cc(-c3ccc(C(=O)NCCc4ccncc4)cc3)nn3ccnc23)n1 (stereo not shown) [Example I-16, 4-{8-[6-(2-Methyl-pyrrolidin-1-yl)-pyridin-2-ylamino]-imidazo[1,2-b]pyridazin-6-yl}-N-(2-pyridin-4-yl-ethyl)-benzamide] | 0.0876 µM
CC1CCCN1c1cccc(Nc2cc(-c3ccc4c(c3)OCO4)nn3ccnc23)n1 (stereo not shown) [Example I-18, (6-Benzo[1,3]dioxol-5-yl-imidazo[1,2-b]pyridazin-8-yl)-[6-(2-methyl-pyrrolidin-1-yl)-pyridin-2-yl]-amine] | 0.115 µM
CC1CCCN1c1cccc(Nc2cc(-c3ccc4cn[nH]c4c3)nn3ccnc23)n1 (stereo not shown) [Example I-19, [6-(1H-Indazol-6-yl)-imidazo[1,2-b]pyridazin-8-yl]-[6-(2-methyl-pyrrolidin-1-yl)-pyridin-2-yl]-amine] | 0.075 µM
O=C(O)c1cccc(-c2cc(Nc3cccc(N4CCCC4)n3)c3nccn3n2)c1 [Example I-22, 3-[8-(6-Pyrrolidin-1-yl-pyridin-2-ylamino)-imidazo[1,2-b]pyridazin-6-yl]-benzoic acid hydrochloride] | 0.434 µM
O=C(O)c1cccc(-c2cc(Nc3cccc(N4CC5CC5C4)n3)c3nccn3n2)c1 (stereo not shown) [Example I-23, 3-{8-[6-(3-Aza-bicyclo[3.1.0]hex-3-yl)-pyridin-2-ylamino]-imidazo[1,2-b]pyridazin-6-yl}-benzoic acid] | 0.442 µM
CC1CCN(c2cccc(Nc3cc(-c4ccccc4)nn4ccnc34)n2)C1 (stereo not shown) [Example I-25, [6-(3-Methyl-pyrrolidin-1-yl)-pyridin-2-yl]-(6-phenyl-imidazo[1,2-b]pyridazin-8-yl)-amine] | 0.0885 µM
COc1ccc(Nc2cc(-c3ccc(C(=O)O)cc3)nn3ccnc23)nc1OC [Example I-26, 4-[8-(5,6-Dimethoxy-pyridin-2-ylamino)-imidazo[1,2-b]pyridazin-6-yl]-benzoic acid] | 0.265 µM
COc1ccc(Nc2cc(-c3ccc(C(=O)NCCc4cc[nH]c(=O)c4)cc3)nn3ccnc23)nc1OC [Example I-28, 4-[8-(5,6-Dimethoxy-pyridin-2-ylamino)-imidazo[1,2-b]pyridazin-6-yl]-N-[2-(2-oxo-1,2-dihydro-pyridin-4-yl)-ethyl]-benzamide] | 0.187 µM
CCC1CCCN1c1cccc(Nc2cc(-c3ccccc3)nn3ccnc23)n1 (stereo not shown) [Example I-30, [6-(2-Ethyl-pyrrolidin-1-yl)-pyridin-2-yl]-(6-phenyl-imidazo[1,2-b]pyridazin-8-yl)-amine hydrochloride] | 1.96 µM
OCC1CCCN1c1cccc(Nc2cc(-c3ccccc3)nn3ccnc23)n1 (stereo not shown) [Example I-31, {1-[6-(6-Phenyl-imidazo[1,2-b]pyridazin-8-ylamino)-pyridin-2-yl]-pyrrolidin-2-yl}-methanol hydrochloride] | 0.27 µM
COc1ccc(Nc2cc(-c3ccc(C(=O)NCCc4ccn(C)c(=O)c4)cc3)nn3ccnc23)nc1OC [Example I-33, 4-[8-(5,6-Dimethoxy-pyridin-2-ylamino)-imidazo[1,2-b]pyridazin-6-yl]-N-[2-(1-methyl-2-oxo-1,2-dihydro-pyridin-4-yl)-ethyl]-benzamide] | 0.079 µM
CC1(C)CCN(c2cccc(Nc3cc(-c4ccccc4)nn4ccnc34)n2)C1 [Example I-34, [6-(3,3-Dimethyl-pyrrolidin-1-yl)-pyridin-2-yl]-(6-phenyl-imidazo[1,2-b]pyridazin-8-yl)-amine] | 1.05 µM
COCC1CCCN1c1cccc(Nc2cc(-c3ccccc3)nn3ccnc23)n1 (stereo not shown) [Example I-35, [6-(2-Methoxymethyl-pyrrolidin-1-yl)-pyridin-2-yl]-(6-phenyl-imidazo[1,2-b]pyridazin-8-yl)-amine hydrochloride] | 0.834 µM
COCC1CCCN1c1cccc(Nc2cc(-c3cccc(C(=O)O)c3)nn3ccnc23)n1 (stereo not shown) [Example I-36, 3-{8-[6-(2-Methoxymethyl-pyrrolidin-1-yl)-pyridin-2-ylamino]-imidazo[1,2-b]pyridazin-6-yl}-benzoic acid] | 0.345 µM
CC1CCCN1c1cccc(Nc2cc(-c3ccc4[nH]ncc4c3)nn3ccnc23)n1 (stereo not shown) [Example I-37, [6-(1H-Indazol-5-yl)-imidazo[1,2-b]pyridazin-8-yl]-[6-(2-methyl-pyrrolidin-1-yl)-pyridin-2-yl]-amine] | 0.0981 µM
CC1CC(C)CN(c2cccc(Nc3cc(-c4cccc(C(=O)O)c4)nn4ccnc34)n2)C1 (stereo not shown) [Example I-38, 3-[8-(3,5-Dimethyl-3,4,5,6-tetrahydro-2H-[1,2′]bipyridinyl-6′-ylamino)-imidazo[1,2-b]pyridazin-6-yl]-benzoic acid] | 0.904 µM
CC1CCCN1c1cccc(Nc2cc(-c3cccc(C(=O)N4CCOCC4)c3)nn3ccnc23)n1 (stereo not shown) [Example I-42, (3-{8-[6-(2-Methyl-pyrrolidin-1-yl)-pyridin-2-ylamino]-imidazo[1,2-b]pyridazin-6-yl}-phenyl)-morpholin-4-yl-methanone] | 0.219 µM
COc1ccc(Nc2cc(-c3ccccc3)nn3ccnc23)nc1OC [Example I-44, (5,6-Dimethoxy-pyridin-2-yl)-(6-phenyl-imidazo[1,2-b]pyridazin-8-yl)-amine] | 0.0476 µM
CC1CCCN1c1cccc(Nc2cc(-c3cccc(C(=O)NCCN(C)C)c3)nn3ccnc23)n1 (stereo not shown) [Example I-46, N-(2-Dimethylamino-ethyl)-3-{8-[6-(2-methyl-pyrrolidin-1-yl)-pyridin-2-ylamino]-imidazo[1,2-b]pyridazin-6-yl}-benzamide] | 0.141 µM

Continued, values first:

IC50 | SMILES
0.478 µM | COC(=O)c1cccc(-c2cc(Nc3cccc(N4CCCC4C)n3)c3nccn3n2)c1 (stereo not shown) [Example I-8, 3-{8-[6-(2-Methyl-pyrrolidin-1-yl)-pyridin-2-ylamino]-imidazo[1,2-b]pyridazin-6-yl}-benzoic acid methyl ester]
0.369 µM | COC(=O)c1ccc(-c2cc(Nc3cccc(N4CCCC4C)n3)c3nccn3n2)cc1 (stereo not shown) [Example I-14, 4-{8-[6-(2-Methyl-pyrrolidin-1-yl)-pyridin-2-ylamino]-imidazo[1,2-b]pyridazin-6-yl}-benzoic acid methyl ester]
0.0842 µM | CC1CCCN1c1cccc(Nc2cc(-c3ccc(C(=O)O)cc3)nn3ccnc23)n1 (stereo not shown) [Example I-15, 4-{8-[6-(2-Methyl-pyrrolidin-1-yl)-pyridin-2-ylamino]-imidazo[1,2-b]pyridazin-6-yl}-benzoic acid]
0.258 µM | O=C(O)c1cccc(-c2cc(Nc3cccc(N4CCCC4CO)n3)c3nccn3n2)c1 (stereo not shown) [Example I-20, 3-{8-[6-(2-Hydroxymethyl-pyrrolidin-1-yl)-pyridin-2-ylamino]-imidazo[1,2-b]pyridazin-6-yl}-benzoic acid]
0.194 µM | Cc1c(C(=O)O)cccc1-c1cc(Nc2cccc(N3CCC[C@@H]3C)n2)c2nccn2n1 [Example I-24, 2-Methyl-3-{8-[6-((S)-2-methyl-pyrrolidin-1-yl)-pyridin-2-ylamino]-imidazo[1,2-b]pyridazin-6-yl}-benzoic acid]
0.292 µM | COc1cccc(-c2cc(Nc3cccc(N4CCCC4C)n3)c3nccn3n2)c1 (stereo not shown) [Example I-39, [6-(3-Methoxy-phenyl)-imidazo[1,2-b]pyridazin-8-yl]-[6-(2-methyl-pyrrolidin-1-yl)-pyridin-2-yl]-amine]
0.0425 µM | CC1CCCN1c1cccc(Nc2cc(-c3cccc(C(=O)NCCO)c3)nn3ccnc23)n1 (stereo not shown) [Example I-40, N-(2-Hydroxy-ethyl)-3-{8-[6-(2-methyl-pyrrolidin-1-yl)-pyridin-2-ylamino]-imidazo[1,2-b]pyridazin-6-yl}-benzamide]
0.13 µM | CC(CO)NC(=O)c1cccc(-c2cc(Nc3cccc(N4CCCC4C)n3)c3nccn3n2)c1 (stereo not shown) [Example I-41, N-(2-Hydroxy-1-methyl-ethyl)-3-{8-[6-(2-methyl-pyrrolidin-1-yl)-pyridin-2-ylamino]-imidazo[1,2-b]pyridazin-6-yl}-benzamide]
0.159 µM | Cc1ccccc1-c1cc(Nc2cccc(N3CCCC3C)n2)c2nccn2n1 (stereo not shown) [Example I-47, [6-(2-Methyl-pyrrolidin-1-yl)-pyridin-2-yl]-(6-o-tolyl-imidazo[1,2-b]pyridazin-8-yl)-amine]
